Assays:
Assay type in all cases: in vivo
[1] = system: velvetleaf (Abutilon theophrastic); assay: Example 23: adjuvants tank mixed with chlorimuron ethyl, percent control from green fresh weights; details: herbicide alone, no adjuvant; chlorimuron ethyl 1.5 g/ha; 187 L/ha; after two weeks
Experimental: (§1) The effect of adjuvants on the activity of chlorimuron ethyl was investigated by tank mixing the adjuvants with the herbicide. Evaluation of the adjuvants was made by mixing the adjuvant with an herbicide solution and spraying the resulting solution at a rate of 1.5 g/ha chlorimuron ethyl in a spray volume of 187 L/ha on velvetleaf (Abutilon theophrastic). Four replications were made of each treatment. Plants were evaluated after two weeks by measuring their green fresh weights and convening these weight by comparison to an untreated control treatment into percent control values.

[2] = system: giant foxtail (Setaria faberi); assay: Example 21: adjuvants tank mixed with isopropylamine salt of glyphosate, percent control from green fresh weights; details: herbicide alone, no added adjuvant; 210 g/ha isopropylamine salt of glyphosate; 187 L/ha; after two weeks
Experimental: as §1, with “of the isopropylamine salt of glyphosate” for “of chlorimuron ethyl”, “of 210” for “of 1.5”, “g/ha isopropylamine salt of glyphosate” for “g/ha chlorimuron ethyl”, “on giant foxtail (Setaria faberi).” for “on velvetleaf (Abutilon theophrastic).”, “and converting” for “and convening”

[3] = system: Alopecurus myosuroides (ALOMY); assay: Example 8: field weed control, adjuvants mixed with flupyrsulfuron methyl, visual percent growth reduction and head count; details: surfactant, where named, 0.1%; for % control ALOMY: 300 L/ha, 60 days after treatment; for Heads/m^2 ALOMY: at 85 days, untreated 784
From the text: (§2) Evaluation of the adjuvants was made, in the field by mixing the adjuvant with flupyrsulfuron methyl herbicide and spraying the resulting solution at a rate of 2.5 to 20 g/ha flupyrsulfuron methyl in a spray volume of 300 L/ha on Alopecurus myosuroides (ALOMY). Surfactants were applied at a concentration of 0.1 % by weight of SC5045 or 0.1 % by volume of Trend® 90 per volume of spray solution. Three replications were made of each treatment. Weed control was visually assessed 60 days after treatment by evaluating the percent growth reduction, using a 0 to 100% scale where 0% equals no control, and 100% equals death of the weed and by counting the number of ALOMY heads per m^2, at 85 days.

[4] = system: giant foxtail (Setaria faberi); assay: Example 20: adjuvants tank mixed with nicosulfuron, percent control from green fresh weights; details: herbicide alone, no adjuvant; nicosulfuron 3.5 g/ha; 187 L/ha; after two weeks
Experimental: as §1, with “nicosulfuron” for “chlorimuron ethyl”, “a nicosulfuron” for “an herbicide”, “3.5” for “1.5”, “giant foxtail (Setaria faberi).” for “velvetleaf (Abutilon theophrastic).”, “treatment. The experiment was repeated three times.” for “treatment.”, “converting” for “convening”

[5] = system: giant foxtail (Setaria faberi); assay: Example 19: adjuvants tank mixed with nicosulfuron, percent control from green fresh weights; details: Adjuvant Conc. 0 % w/w (no adjuvant); nicosulfuron 3.5 g/ha; 187 L/ha; after two weeks
Experimental: as §1, with “nicosulfuron” for “chlorimuron ethyl”, “a nicosulfuron” for “an herbicide”, “3.5” for “1.5”, “giant foxtail (Setaria faberi). Three” for “velvetleaf (Abutilon theophrastic). Four”, “converting” for “convening”

[6] = system: giant foxtail (Setaria faberi); assay: Example 22: adjuvants tank mixed with quizalofop-ethyl, percent control from green fresh weights; details: herbicide alone, no adjuvant; quizalofop-ethyl 3.5 g/ha; 187 L/ha; after two weeks
Experimental: as §1, with “quizalofop-ethyl” for “chlorimuron ethyl”, “3.5” for “1.5”, “giant foxtail (Setaria faberi).” for “velvetleaf (Abutilon theophrastic).”, “treatment. The experiment was repeated two times.” for “treatment.”, “converting” for “convening”

[7] = system: Alopecurus myosuroides (ALOMY); assay: Example 6: field weed control, SCS5045 surfactant mixed with sulfosulfuron, visual percent growth reduction and head count; details: where named, 0.1%; for % control ALOMY: 300 L/ha, 60 days after treatment; for Heads/m^2 ALOMY: counted 85 days after treatment, untreated 400
From the text: as §2, with “SCS5045 surfactant” for “the adjuvants”, “surfactant” for “adjuvant”, “sulfosulfuron” for “flupyrsulfuron methyl”, “11.25” for “2.5”, “45 g /ha sulfosulfuron” for “20 g/ha flupyrsulfuron methyl”, “weed.” for “weed and by counting the number of ALOMY heads per m^2, at 85 days.”
The number of ALOMY heads per m^2 was also counted 85 days after treatment.

[8] = system: Veronica hederifolia (VERHE); assay: Example 7: field weed control, SCS5045 surfactant mixed with metsulfuron methyl, visual percent growth reduction; details: where named, 0.1%, 300 L/ha, 50 days after treatment
From the text: Evaluation of SCS5045 surfactant was made, in the field by mixing the surfactant with metsulfuron methyl herbicide and spraying the resulting solution at a rate of 5.625 to 45 g/ha metsulfuron methyl in a spray volume of 300 L/ha on Veronica hederifolia (VERHE). Surfactants were applied at a concentration of 0.1% by weight (if the surfactant is dry) or by volume (if the surfactant is a liquid) of surfactant per volume of spray solution. Three replications were made of each treatment. Weed control was visually assessed 50 days after treatment by evaluating the percent growth reduction, using a 0 to 100% scale where 0% equals no control, and 100% equals death of the weed.

[9] = system: common lambsquarters (Chenopodium album L.); assay: Example 24: adjuvants tank mixed with thifensulfuron methyl, percent control from green fresh weights; details: herbicide alone, no adjuvant; thifensulfuron methyl 2 g/ha; 187 L/ha; after two weeks
Experimental: as §1, with “thifensulfuron methyl” for “chlorimuron ethyl”, “2” for “1.5”, “common lambsquarters (Chenopodium album L.).” for “velvetleaf (Abutilon theophrastic).”, “converting” for “convening”

Viola arvensis (VIOAR) = assay: Example 5: weed control, SCS5045 surfactant mixed with tribenuron methyl, visual percent growth reduction; details: where named, 0.1%, 300 L/ha, 70 days after treatment
From the text: (§3) Evaluation of SCS5045 surfactant was made by mixing the surfactant with tribenuron methyl herbicide and spraying the resulting solution at a rate of 5.625 to 45 g/ha tribenuron methyl in a spray volume of 300 L/ha on Viola arvensis (VIOAR) and Veronica agrestis (VERAG). Surfactants were applied at a concentration of 0.1% by weight (if the surfactant is dry) or by volume (if the surfactant is a liquid) of surfactant per volume of spray solution. Three replications were made of each treatment. Weed control was visually assessed 70 days after treatment by evaluating the percent growth reduction, using a 0 to 100% scale where 0% equals no control, and 100% equals death of the weed.

[10] = system: Veronica agrestis (VERAG); assay: as above; details: where named, 0.1%, 300 L/ha, 70 days after treatment
From the text: as §3

[11] = flupyrsulfuron methyl 2.5 g herbicide /ha
[12] = flupyrsulfuron methyl 5 g herbicide /ha
[13] = flupyrsulfuron methyl 10 g herbicide /ha
[14] = flupyrsulfuron methyl 20 g herbicide /ha
[15] = sulfosulfuron 11.25 g herbicide /ha
[16] = sulfosulfuron 22.5 g herbicide /ha
[17] = sulfosulfuron 33.75 g herbicide /ha
[18] = sulfosulfuron 45 g herbicide /ha
[19] = tribenuron methyl 5.625 g ai/ha
[20] = tribenuron methyl 11.25 g ai/ha

## CCOC(=O)c1ccccc1S(=O)(=O)NC(=O)Nc1nc(Cl)cc(OC)n1 [Chlorimuron Alone, chlorimuron ethyl]
[1]
  % Velvetleaf Control: 53%

## CC(C)N.O=C(O)CNCP(=O)(O)O [Glyphosate IPA Alone, isopropylamine salt of glyphosate]
[2]
  % Control: 85%

## COC(=O)c1ccc(C(F)(F)F)nc1S(=O)(=O)NC(=O)Nc1nc(OC)cc(OC)n1 [KE459, flupyrsulfuron methyl]
[3]; [11]
  % control ALOMY: 63%
  Heads/m^2 ALOMY: 224 Heads/m^2
[3]; [12]
  % control ALOMY: 73%
  Heads/m^2 ALOMY: 164 Heads/m^2
[3]; [13]
  % control ALOMY: 77%
  Heads/m^2 ALOMY: 16 Heads/m^2
[3]; [14]
  % control ALOMY: 88%
  Heads/m^2 ALOMY: 8 Heads/m^2

## COc1cc(OC)nc(NC(=O)NS(=O)(=O)c2ncccc2C(=O)N(C)C)n1 [Nicosulfuron Alone, nicosulfuron]
[4]
  % Control: 2%
[5]
  percent control: 0%

## CCOC(=O)C(C)Oc1ccc(Oc2cnc3cc(Cl)ccc3n2)cc1 (stereo not shown) [Quizalofop Ethyl Alone, quizalofop-ethyl]
[6]
  % Control: 7%

## CCS(=O)(=O)c1nc2ccccn2c1S(=O)(=O)NC(=O)Nc1nc(OC)cc(OC)n1 [Sulfosulfuron, sulfosulfuron]
[7]; [15]
  % control ALOMY: 33%
  Heads/m^2 ALOMY: 209 Heads/m^2
[7]; [16]
  % control ALOMY: 47%
  Heads/m^2 ALOMY: 76 Heads/m^2
[7]; [17]
  % control ALOMY: 60%
  Heads/m^2 ALOMY: 25 Heads/m^2
[7]; [18]
  % control ALOMY: 77%
  Heads/m^2 ALOMY: 6 Heads/m^2

## COC(=O)c1ccccc1S(=O)(=O)NC(=O)Nc1nc(C)nc(OC)n1 [T6376, metsulfuron methyl]
[8]; metsulfuron methyl 5.625 g herbicide /ha
  VERHE (percent growth reduction): 33%
[8]; metsulfuron methyl 11.25 g herbicide /ha
  VERHE (percent growth reduction): 33%
[8]; metsulfuron methyl 22.5 g herbicide /ha
  VERHE (percent growth reduction): 52%
[8]; metsulfuron methyl 45 g herbicide /ha
  VERHE (percent growth reduction): 100%

## COC(=O)c1sccc1S(=O)(=O)NC(=O)Nc1nc(C)nc(OC)n1 [Thifensulfuron Alone, thifensulfuron methyl]
[9]
  % Common Lambsquarters Control: 11%

## COC(=O)c1ccccc1S(=O)(=O)NC(=O)N(C)c1nc(C)nc(OC)n1 [Tribenuron methyl, tribenuron methyl]
Viola arvensis (VIOAR); [19]
  % control VIOAR: 27%
Viola arvensis (VIOAR); [20]
  % control VIOAR: 75%
Viola arvensis (VIOAR); tribenuron methyl 22.5 g ai/ha
  % control VIOAR: 80%
Viola arvensis (VIOAR); tribenuron methyl 45 g ai/ha
  % control VIOAR: 99%
[10]; [19]
  % control VERAG: 47%
[10]; [20]
  % control VERAG: 60%
[10]; tribenuron methyl 22.5 g ai/ha
  % control VERAG: 63%
[10]; tribenuron methyl 45 g ai/ha
  % control VERAG: 87%
